Legend:
[1] = Inhibition of chemotaxis in human polymorphonuclear leukocytes assessed as inhibition of migration towards zymosan-activated human serum at 100 ug/ml after 30 mins by Boyden chamber technique; assay type: functional; details: 0.5 h
[2] = Inhibition of chemotaxis in human polymorphonuclear leukocytes assessed as inhibition of migration towards zymosan-activated human serum at 0.1 ug/ml after 30 mins by Boyden chamber technique; assay type: functional; details: 0.5 h
[3] = Inhibition of chemotaxis in human polymorphonuclear leukocytes assessed as inhibition of migration towards zymosan-activated human serum at 1 ug/ml after 30 mins by Boyden chamber technique; assay type: functional; details: 0.5 h
[4] = Inhibition of chemotaxis in human polymorphonuclear leukocytes assessed as inhibition of migration towards zymosan-activated human serum at 10 ug/ml after 30 mins by Boyden chamber technique; assay type: functional; details: 0.5 h
[5] = Inhibition of chemotaxis in human polymorphonuclear leukocytes assessed as inhibition of migration towards zymosan-activated human serum at 50 ug/ml after 30 mins by Boyden chamber technique; assay type: functional; details: 0.5 h
[6] = Cytotoxicity against human polymorphonuclear leukocyte assessed as cell viability at 50 to 100 ug/ml by trypan blue exclusion method; details: polymorphonuclear leukocytes, read-out: INH

SMILES: CC/C=C\C/C=C\C/C=C\CCCCCCCC(=O)OC[C@H](CO[C@@H]1O[C@H](CO)[C@H](O)[C@H](O)C1O)OC(=O)CCCCCCC/C=C\C/C=C\C/C=C\CC (single isomer, unassigned)
- inhibition at 100 µg/mL [1]: 82%
- inhibition at 0.1 µg/mL [2]: 7%
- inhibition at 1 µg/mL [3]: 64%
- inhibition at 10 µg/mL [4]: 62%
- inhibition at 50 µg/mL [5]: 77%
- viability [6]: 100%
